A short description of series [1]: Membrane permeability experiment (PAMPA Evolution). The class given is in vitro ADME. The conditions noted are these: artificial lipid GIT-0, pH 4.0, 5.0, 6.2 and 7.4, marker metoprolol. Here is the method:
In the development of pharmaceuticals, membrane permeability is an important factor to consider from the viewpoint of relationship with the bodily absorption of a medicament to be administered orally. Compounds having high membrane permeability are expected to feature satisfactory absorption by the intestinal tract (see Pharmaceutical Research (2002) Vol. 19, No. 7, 921-925.)
A membrane permeability test was conducted using PAMPA Evolution™ (pION INC.) in accordance with a modified version of the recommended protocol of pION INC. To be more specific, solutions of an assay compound (i.e., a DMSO solution of the compound as diluted by being added to system solutions that had been adjusted to prescribed pHs (4.0, 5.0, 6.2, and 7.4)) were prepared and added to the lower compartment (donor) of a sandwich plate having a lipid bilayer membrane formed of an artificial lipid (GIT-0). An acceptor sink buffer was added to the upper compartment (acceptor) and after the lapse of a prescribed period, the cumulative permeation of the compound was measured by performing UV spectroscopy on the solutions in the donor and acceptor, and the membrane permeability coefficient Pe (×10^−6 cm/sec) was calculated to assay the membrane permeability of the compound.
(In general: PAMPA measures passive passage across an artificial lipid membrane.)

Series [2] concerns the target T1, human type 1 glycine transporter (GlyT1) (Homo sapiens, UniProt P48067).
T1 construct: Used in the experiment were T98G cells (glioma cells) developing a human type 1 glycine transporter (GlyT1); endogenous in cells; host or cells: T98G human glioma cells
T1 sequence (P48067 1-706): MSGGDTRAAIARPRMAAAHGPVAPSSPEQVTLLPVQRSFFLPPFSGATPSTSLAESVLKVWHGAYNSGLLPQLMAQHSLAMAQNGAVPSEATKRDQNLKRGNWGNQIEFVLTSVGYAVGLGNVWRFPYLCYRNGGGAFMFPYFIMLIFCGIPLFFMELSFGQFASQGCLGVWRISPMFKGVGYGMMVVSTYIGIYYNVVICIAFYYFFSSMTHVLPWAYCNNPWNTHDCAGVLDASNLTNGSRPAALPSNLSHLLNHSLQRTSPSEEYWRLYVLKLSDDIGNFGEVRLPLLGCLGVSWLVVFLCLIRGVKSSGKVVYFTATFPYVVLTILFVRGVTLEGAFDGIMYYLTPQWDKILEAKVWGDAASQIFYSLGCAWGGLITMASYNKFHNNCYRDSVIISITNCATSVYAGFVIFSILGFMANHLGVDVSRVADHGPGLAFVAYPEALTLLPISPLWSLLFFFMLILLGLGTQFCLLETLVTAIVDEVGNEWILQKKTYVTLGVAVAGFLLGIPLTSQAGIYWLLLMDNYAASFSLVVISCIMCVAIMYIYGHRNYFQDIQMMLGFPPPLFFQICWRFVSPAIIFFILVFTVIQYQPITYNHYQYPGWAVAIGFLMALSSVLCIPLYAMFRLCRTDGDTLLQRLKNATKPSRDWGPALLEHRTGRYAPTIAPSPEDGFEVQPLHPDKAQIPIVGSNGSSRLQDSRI
Kind of series: Glycine uptake inhibition experiment ([3H] glycine uptake in T98G cells). The class given is cell-based. The conditions noted are these: [3H] glycine 250 nM, read-out: IC50 (glycine uptake inhibiting activity). As to the method: A glycine uptake inhibition experiment was conducted in accordance with the method described in Neuron, 8, 927-935, 1992. Used in the experiment were T98G cells (glioma cells) developing a human type 1 glycine transporter (GlyT1). The T98G cells were seeded in a 96-well plate at a density of 2.0×10^4 cells per well and cultured overnight in a CO2 incubator. The test substance was first dissolved in a 100% DMSO solution and then dissolved in a 10 mM HEPES buffer solution (pH 7.4) supplemented with 150 mM sodium chloride, 1 mM calcium chloride, 5 mM potassium chloride, 1 mM magnesium chloride, 10 mM glucose, and 0.2% bovine serum albumin. After removing the cell culture medium, the test substance was subjected to a 10-min pretreatment. Thereafter, the test substance and [^3H] glycine (final concentration: 250 nM) were added to the cells and reaction was performed at room temperature for 15 minutes. After the end of the reaction, the extracellular fluid was aspirated with a manifold to remove the excess marker glycine present outside of the cells; thereafter, the cells were lysed with an aqueous solution of 0.5 M sodium hydroxide. The glycine content in the cells was determined by measuring the radioactivity in the cell lysate with a liquid scintillation counter. With the amount of glycine uptake in the presence of 10 μM ALX5407 being referred to as the nonspecific uptake, the amount of specific uptake was calculated by subtracting the amount of nonspecific uptake from the total amount of uptake in the absence of 10 μM ALX5407. In addition, glycine uptake inhibiting activity (IC50) was calculated from an inhibition curve for the concentration of the test substance ranging from 10^−9 to 10^−5 M.

SMILES strings stand for the structures. Where two headings read alike, the source gives them in different places.

`Cn1cnc(C(=O)N(Cc2ccc(F)c(Cl)c2)C2CCOCC2)n1` [Compound 34]: in series [1], the “membrane permeability coefficient Pe compared with metoprolol” value is on record as “higher Pe values than the high permeability marker compound metoprolol”. Moreover, the IC50 (usually the point on the concentration scale where inhibition reaches its midpoint) in series [2] is less than 100 nM.

For `O=C(c1c[nH]cn1)N(Cc1cccc(Cl)c1)C1CCOCC1` [Compound 26], in series [1], the “membrane permeability coefficient Pe compared with metoprolol” value was “higher Pe values than the high permeability marker compound metoprolol”. Moreover, the IC50 in series [2] was not below 1000 nM.

On to `Cn1cnc(C(=O)N(Cc2cccc(Cl)c2)C2CCOCC2)c1` [Compound 15], for which the “membrane permeability coefficient Pe compared with metoprolol” value in series [1] was “higher Pe values than the high permeability marker compound metoprolol”. Also, the IC50 in series [2] (15 min, room temperature) was 13.5 nM; in series [2] it was less than 100 nM.

As for `Cn1cnc(C(=O)N(Cc2ccc(F)c(-c3ccc(F)cc3)c2)C2CCOCC2)c1` [Compound 103], the “membrane permeability coefficient Pe compared with metoprolol” value in series [1] is recorded as “higher Pe values than the high permeability marker compound metoprolol”. The IC50 in series [2] (15 min, room temperature) is 8.2 nM; in series [2], less than 100 nM.

With `Cn1cnc(C(=O)N(Cc2ccc(F)c(-c3ccc(F)cc3)c2)C2CCOCC2)n1` [Compound 79], the “membrane permeability coefficient Pe compared with metoprolol” value in series [1] is given as “higher Pe values than the high permeability marker compound metoprolol”. Moreover, the IC50 in series [2] (15 min, room temperature) was 32 nM; in series [2], less than 100 nM.

As to `Cn1cnc(C(=O)N(Cc2cccc(OC(F)(F)F)c2)CC2CCOCC2)c1` [Compound 2], in series [1], the “membrane permeability coefficient Pe compared with metoprolol” value is “higher Pe values than the high permeability marker compound metoprolol”. The IC50 in series [2] (15 min, room temperature) is 34.5 nM; in series [2], less than 100 nM.

For the compound `Cn1cnc(C(=O)N(Cc2ccc(F)c(-c3cccc(CCO)c3)c2)C2CCOCC2)c1` [Compound 99], the “membrane permeability coefficient Pe compared with metoprolol” value in series [1] is recorded as “higher Pe values than the high permeability marker compound metoprolol”. Moreover, the IC50 is 9 nM in series [2] (15 min, room temperature) and less than 100 nM in series [2].

`Cn1cnc(C(=O)N(Cc2ccc(F)c(C(F)(F)F)c2)C2CCOCC2)n1` [Compound 35]: in series [1], the “membrane permeability coefficient Pe compared with metoprolol” value was “higher Pe values than the high permeability marker compound metoprolol”. Besides, the IC50 in series [2] (15 min, room temperature) was 40.3 nM; in series [2], less than 100 nM.

For `Cn1cnc(C(=O)N(Cc2ccc(F)c(-c3ccc(F)c(Cl)c3)c2)C2CCOCC2)n1` [Compound 86], in series [1], the “membrane permeability coefficient Pe compared with metoprolol” value is on record as “higher Pe values than the high permeability marker compound metoprolol”. Further, the IC50 was 21.4 nM in series [2] (15 min, room temperature) and less than 100 nM in series [2].

As to `Cn1cnc(C(=O)N(Cc2cccc(C(F)(F)F)c2)C2CCOCC2)c1` [Compound 16], the “membrane permeability coefficient Pe compared with metoprolol” value in series [1] is given as “higher Pe values than the high permeability marker compound metoprolol”. Besides, the half-maximal inhibitory concentration (IC50) in series [2] (15 min, room temperature) was 9.7 nM; in series [2], less than 100 nM.

Regarding `Cn1cnc(C(=O)N(Cc2ccc(F)c(Br)c2)C2CCOC(C)(C)C2)c1` (stereo not drawn) [Compound 110], the “membrane permeability coefficient Pe compared with metoprolol” value in series [1] is recorded as “higher Pe values than the high permeability marker compound metoprolol”.

Turning to `Cn1cnc(C(=O)N(Cc2ccc(F)c(-c3ccccc3)c2)C2CCOCC2)n1` [Compound 59], the “membrane permeability coefficient Pe compared with metoprolol” value in series [1] is “higher Pe values than the high permeability marker compound metoprolol”. Also, the IC50 in series [2] (15 min, room temperature) was 12.6 nM; in series [2], less than 100 nM.

Regarding `CCOc1cccc(-c2cc(CN(C(=O)c3ncn(C)n3)C3CCOCC3)ccc2F)c1` [Compound 91], in series [1], the “membrane permeability coefficient Pe compared with metoprolol” value is reported as “higher Pe values than the high permeability marker compound metoprolol”. For the same compound, the 50% inhibitory concentration (IC50) in series [2] (15 min, room temperature) is 28.9 nM; in series [2] it was less than 100 nM.

Turning to `Cn1cnc(C(=O)N(Cc2ccc(F)c(-c3ccc(OC(F)(F)F)cc3)c2)C2CCOCC2)n1` [Compound 89], the “membrane permeability coefficient Pe compared with metoprolol” value in series [1] was “higher Pe values than the high permeability marker compound metoprolol”. For the same compound, the IC50 in series [2] (15 min, room temperature) was 22.4 nM; in series [2], less than 100 nM.

Turning to `Cn1cnc(C(=O)N(Cc2ccc(F)c(-c3ccc(OC(F)(F)F)cc3)c2)C2CCOCC2)c1` [Compound 100], the “membrane permeability coefficient Pe compared with metoprolol” value in series [1] is given as “higher Pe values than the high permeability marker compound metoprolol”. The IC50 is 6 nM in series [2] (15 min, room temperature) and less than 100 nM in series [2].

`Cn1cnc(C(=O)N(Cc2ccc(F)c(Cl)c2)C2CCOCC2)c1` [Compound 24]: in series [1], the “membrane permeability coefficient Pe compared with metoprolol” value is recorded as “higher Pe values than the high permeability marker compound metoprolol”. Besides, the IC50 in series [2] (15 min, room temperature) is 5.9 nM; in series [2] it was less than 100 nM.

For the compound `Cn1cnc(C(=O)N(Cc2cccc(-c3ccccc3)c2)C2CCOCC2)n1` [Compound 55], the “membrane permeability coefficient Pe compared with metoprolol” value in series [1] was “higher Pe values than the high permeability marker compound metoprolol”. Moreover, the IC50 in series [2] (15 min, room temperature) was 28.7 nM; in series [2], less than 100 nM.

Regarding `Cn1cnc(C(=O)N(Cc2ccc(F)c(-c3cccc(OC(F)(F)F)c3)c2)C2CCOCC2)n1` [Compound 87], the “membrane permeability coefficient Pe compared with metoprolol” value in series [1] is “higher Pe values than the high permeability marker compound metoprolol”. In addition, the IC50 in series [2] (15 min, room temperature) is 5.4 nM; in series [2] it was less than 100 nM.

For the compound `Cn1cnc(C(=O)N(CCc2cccc(OC(F)(F)F)c2)C2CCOCC2)c1` [Compound 70], the “membrane permeability coefficient Pe compared with metoprolol” value in series [1] is reported as “higher Pe values than the high permeability marker compound metoprolol”. In addition, the IC50 in series [2] (15 min, room temperature) is 14.1 nM; in series [2], less than 100 nM.

For `O=C(c1cn(C2CC2)cn1)N(Cc1cccc(OC(F)(F)F)c1)C1CCOCC1` [Compound 12], the “membrane permeability coefficient Pe compared with metoprolol” value in series [1] was “higher Pe values than the high permeability marker compound metoprolol”. The IC50 in series [2] was not below 1000 nM.

Regarding `Cn1cnc(C(=O)N(Cc2ccc(F)c(-c3ccc(Cl)cc3)c2)C2CCOCC2)n1` [Compound 60], in series [1], the “membrane permeability coefficient Pe compared with metoprolol” value is listed as “higher Pe values than the high permeability marker compound metoprolol”. Further, the IC50 in series [2] (15 min, room temperature) is 30.6 nM; in series [2] it was less than 100 nM.

On to `Cn1cnc(C(=O)N(Cc2ccc(F)c(-c3cccc(Cl)c3)c2)C2CCOCC2)n1` [Compound 61], for which the “membrane permeability coefficient Pe compared with metoprolol” value in series [1] is “higher Pe values than the high permeability marker compound metoprolol”. Also, the half-maximal inhibitory concentration (IC50) in series [2] (15 min, room temperature) was 15.9 nM; in series [2], less than 100 nM.

Turning to `Cn1cnc(C(=O)N(Cc2ccc(F)c(-c3cccc(Oc4ccccc4)c3)c2)C2CCOCC2)n1` [Compound 96], the “membrane permeability coefficient Pe compared with metoprolol” value in series [1] was “higher Pe values than the high permeability marker compound metoprolol”. In series [2], the IC50 is less than 100 nM.

For `Cn1cnc(C(=O)N(C2CCOCC2)C(CO)Cc2cccc(OC(F)(F)F)c2)c1` (stereo not drawn) [Compound 109], the “membrane permeability coefficient Pe compared with metoprolol” value in series [1] is on record as “higher Pe values than the high permeability marker compound metoprolol”. For the same compound, the concentration for half-maximal inhibition (IC50) in series [2] (15 min, room temperature) is 31.7 nM; in series [2] it was less than 100 nM.

Values taken from patent publication US8623898B2, “Glycine transporter inhibiting substances” (Taisho Pharmaceutical Co., Ltd., priority 2009, dated 2014).
